Consider 13 compounds from patent US12435087B2, “Modulators of DCN-1 and methods of use thereof” (Cellarity, Inc., priority 2023, dated 2025).

This test addresses DCN1 (DCUND1) protein PONY domain (Homo sapiens (Human), UniProt Q96GG9). Description: TR-FRET assay (binding to DCN-1, displacement of FAM-labeled probe). Put shortly: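 Compounds read at 1, 5 and 24 h, 0.1% final DMSO, by TR-FRET between terbium-streptavidin on biotinylated DCN1 PONY domain (E. coli) and a FAM-tagged non-covalent inhibitor probe. Two setups used, 5 nM protein with 20 nM labelled probe, or 0.31 nM protein with 100 nM labelled plus 800 nM unlabelled probe; buffer had TritonX and 200 mM NaCl. % activity relative to high (with probe) and low (without probe) controls.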
(Time-resolved FRET reads energy transfer from a long-lived donor to a nearby acceptor.)

The mark [1] stands for this setting: 24 hr after treatment with compound, read-out: TR FRET IC50 24 hr.
Where [2] appears, read: TR FRET IC50 1 hr (nM), 1 hr after treatment with compound.
Setting [3] is: read-out: TR FRET IC50 1 hr, 1 hr after treatment with compound.

Like-named read-outs stand apart in the source and are kept apart here.

Chain of DCN1 (DCUND1) protein PONY domain (Q96GG9 60-248): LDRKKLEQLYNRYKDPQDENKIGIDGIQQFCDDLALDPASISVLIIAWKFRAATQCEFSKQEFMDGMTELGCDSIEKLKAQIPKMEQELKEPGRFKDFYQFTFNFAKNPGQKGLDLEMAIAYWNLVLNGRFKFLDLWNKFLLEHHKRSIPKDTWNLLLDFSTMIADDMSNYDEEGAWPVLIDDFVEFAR

Turning to `CCN1C(=O)[C@H](NC(=O)c2cccc(C(F)(F)F)c2)[C@@H](c2ccccc2NC#N)c2cnn(-c3ccccc3)c21` (racemic) [Compound I-122, ˜{N}—[˜{rac}-(4˜{S},5˜{R})-4-[2-(cyanoamino)phenyl]-7-ethyl-6-oxo-1-phenyl-4,5-dihydropyrazolo[3,4-b]pyridin-5-yl]-3-(trifluoromethyl)benzamide], the IC50 by setting is: under setting [1], 1000 to 3000 nM; under setting [2], 1000 to 3000 nM.
Consider `C=C(CN(C)C1COC1)C(=O)Nc1cccc([C@H]2c3c(C)nn(-c4ccccc4)c3N(CC)C(=O)[C@@H]2NC(=O)c2cccc(C(F)(F)F)c2)c1` (racemic) [Compound I-3], for which the IC50 under setting [1] is no more than 200 nM and the IC50 under setting [3] was no more than 200 nM.
As for `C/C=C(\CN1CCOCC1)C(=O)NCc1cccc([C@@H]2c3cnn(-c4ccccc4)c3N(CC)C(=O)[C@H]2NC(=O)c2ccn(C(F)(F)F)n2)c1` [Compound I-284], the IC50 under setting [1] was no more than 200 nM and the IC50 under setting [2] is 1000 to 3000 nM.
For the compound `C=C(CN1CCOCC1)C(=O)NCc1cccc([C@@H]2c3cnn(-c4ccccc4)c3N(CC)C(=O)[C@H]2NC(=O)c2ccn(CCF)n2)c1` [Compound I-357], the IC50 runs as follows: under setting [1], no more than 200 nM; under setting [2], 200 to 1000 nM.
Take `CCN1C(=O)[C@@H](NC(=O)c2nccc(C(F)(F)F)n2)[C@H](c2cccc(NC(=O)/C=C/CN(C)C)n2)c2cnn(-c3ccccc3)c21` (racemic) [Compound I-265]: the IC50 runs as follows: under setting [1], 200 to 1000 nM; under setting [2], 200 to 1000 nM.
On to `C=C(CN(C)C1COC1)C(=O)N(C)Cc1cccc([C@@H]2c3cnn(-c4ccccc4)c3N(CC)C(=O)[C@H]2NC(=O)c2ccn(C3CC3)n2)c1` [Compound I-239], for which, under setting [2], the 50% inhibitory concentration (IC50) was 1000 to 3000 nM.
Regarding `C=C(CN1CC(O)C1)C(=O)NCc1cccc([C@@H]2c3cnn(-c4ccccc4)c3N(CC)C(=O)[C@H]2NC(=O)c2cccc(C(F)(F)F)c2)c1` [Compound I-291], the IC50 reads like this: under setting [1], no more than 200 nM; under setting [3], no more than 200 nM.
`C=C(CN1CCC1)C(=O)NCc1cccc([C@H]2c3c(C)nn(-c4ccccc4)c3N(CC)C(=O)[C@@H]2NC(=O)c2cccc(C(F)(F)F)c2)c1` [Compound I-374]: the IC50 was in the range of 200 to 1000 nM under setting [1] and 200 to 1000 nM under setting [2].
For `CCN1C(=O)[C@@H](NC(=O)c2cccc(C(F)(F)F)c2)[C@H](c2cccc(NC(=O)/C(C)=C/C(=O)OC)c2)c2c(C)nn(-c3ccccc3)c21` (racemic) [Compound I-145], the IC50 is 200 to 1000 nM under setting [1] and 1000 to 3000 nM under setting [2].
The corresponding values for `C=C(CO)C(=O)NCc1cccc([C@H]2c3cnn(-c4ccccc4)c3N(CC)C(=O)[C@@H]2NC(=O)c2cccc(C(F)(F)F)c2)c1` [Compound I-87] are 1000 to 3000 nM and 1000 to 3000 nM.
As to `C=C(CN1CCN(C2COC2)CC1)C(=O)NCc1cccc([C@@H]2c3cnn(-c4ccccc4)c3N(CC)C(=O)[C@H]2NC(=O)c2nccc(C(F)(F)F)n2)n1` [Compound I-354], the IC50 is, setting by setting: under setting [1], 1000 to 3000 nM; under setting [2], 1000 to 3000 nM.
As to `CCN1C(=O)[C@@H](NC(=O)c2cccc(C(F)(F)F)c2)[C@H](c2ccccc2NC(=O)CCl)c2c(C)nn(-c3ccccc3)c21` [Compound I-52, N-((4R,5S)-4-(2-(2-chloroacetamido)phenyl)-7-ethyl-3-methyl-6-oxo-1-phenyl-4,5,6,7-tetrahydro-1H-pyrazolo[3,4-b]pyridin-5-yl)-3-(trifluoromethyl)benzamide], the IC50 is, setting by setting: under setting [1], no more than 200 nM; under setting [2], 1000 to 3000 nM.
For `C=C(CN(C)CC1COC1)C(=O)NCc1cccc([C@@H]2c3cnn(-c4ccccc4)c3N(CC)C(=O)[C@H]2NC(=O)c2cccc(C(F)(F)F)c2)c1` [Compound I-61], the IC50 is, setting by setting: under setting [1], no more than 200 nM; under setting [3], no more than 200 nM.

As usually defined, the IC50 is the concentration at which inhibition is half-maximal.
